Ends that are not written are not given here.
How the values were obtained:
A. baumannii = assay: Bacterial resistance development assay (serial passaging); type: cell-based, Acinetobacter baumannii; details: after 26 days of serial passaging at sub-inhibitory concentrations
Procedure: (§1) FIG. 3. Synergy, resistance development and mechanism of action studies of encrypted peptides. […] (FIG. 3B) Evolution of resistance by A. baumannii to encrypted peptides derived from the CUB domain (red) or polymyxin B (gray) after 30 days of serial passaging in liquid nutrient broth. Peptides and antibiotics were used at sub-inhibitory concentrations. Cells were passaged every 48 h. […] (FIG. 3D) Cytoplasmic membrane depolarization effects of the encrypted peptides against A. baumannii. (FIG. 3E) NPN assays showing the effect of encrypted peptides derived from the CUB domain and natriuretic peptide on permeabilization of the outer membrane of A. baumannii.
In any antibiotic discovery effort, it is crucial to assess how readily the molecules identified select for resistance mechanisms in bacteria, as the emergence of resistance has hampered the antibiotic field since its very inception with the discovery of penicillin in 1928^38. To determine whether bacteria become resistant to encrypted peptides, longitudinal resistance assays were performed with peptides derived from the CUB domains 1 and 3 against A. baumannii, using polymyxin B as a control (FIG. 3B).
Methods: Bacterial resistance development assays. The evolution of resistance by A. baumannii cells to encrypted peptides was monitored for 30 days of serial passaging in liquid nutrient broth. […]

S. epidermidis = assay: Outer membrane permeabilization (NPN uptake) assay; type: cell-based, Staphylococcus epidermidis; details: peptides at MIC
Procedure: (§2) FIG. 10. Membrane permeabilization and depolarization assays for several bacterial strains. […] FIG. 10B: Cytoplasmic membrane depolarization assays performed against P. aeruginosa PAO1 and the gut commensal B. fragilis ATCC25285.
(§3) Methods: Membrane depolarization assays. The cytoplasmic membrane depolarization activity of the peptides was determined by measurements of fluorescence of the membrane potential-sensitive dye, DiSC3(5). Briefly, A. baumannii ATCC19606, P. aeruginosa PAO1 and B. fragilis ATCC25285 were grown at 37° C. with agitation until they reached mid-log phase (OD600=0.5). […] Thereafter, the cells (100 μL) were incubated for 15 min with 20 nmol L^−1 of DiSC3(5) until a stable reduction of fluorescence was achieved, indicating the incorporation of the dye into the bacterial membrane. Membrane depolarization was then monitored by observing the change in the fluorescence emission intensity of the membrane potential-sensitive dye, DiSC3(5) (λex=622 nm, λem=670 nm), after the addition of peptides (100 μL solution at MIC values). […] The membrane permeability of the peptides was determined by using the N-phenyl-1-napthylamine (NPN) uptake assay. […] The background fluorescence was recorded at λex=350 nm and λem=420 nm. […]

A. baumannii ATCC19606 = assay: Outer membrane permeabilization (NPN uptake) assay; type: cell-based, Acinetobacter baumannii; details: peptides at MIC, compared to untreated control and polymyxin B
Procedure: as §1
In order to investigate the mode of action of encrypted peptides against bacterial cells, assays were performed to study their effects on the bacterial membrane. First, the ability of encrypted peptides to disrupt and depolarize the bacterial cytoplasmic membrane was assessed […]. 3,3′-dipropylthiadicarbocyanine iodide [DiSC3(5)] was used, a potentiometric fluorophore that accumulates and aggregates in the cytoplasmic membrane, quenching its fluorescence. Upon imbalances of the cytoplasmic membrane transmembrane potential, the fluorophore migrates to the cytoplasm or the outer environment, generating fluorescence. […]
Methods: Membrane depolarization assays. The cytoplasmic membrane depolarization activity of the peptides was determined by measurements of fluorescence of the membrane potential-sensitive dye, DiSC3(5). […] Thereafter, the cells (100 μL) were incubated for 15 min with 20 nmol L^−1 of DiSC3(5) until a stable reduction of fluorescence was achieved, indicating the incorporation of the dye into the bacterial membrane. Membrane depolarization was then monitored by observing the change in the fluorescence emission intensity of the membrane potential-sensitive dye, DiSC3(5) (λex=622 nm, λem=670 nm), after the addition of peptides (100 μL solution at MIC values). […] The membrane permeability of the peptides was determined by using the N-phenyl-1-napthylamine (NPN) uptake assay. […]

P. aeruginosa PAO1 = assay: Outer membrane permeabilization (NPN uptake) assay; type: cell-based, Pseudomonas aeruginosa; details: peptides at MIC
Procedure: as §2, §3

B. fragilis ATCC25285 = assay: Outer membrane permeabilization (NPN uptake) assay; type: cell-based, Bacteroides fragilis; details: peptides at MIC
Procedure: as §2, §3

Substance	increase of concentrations needed to kill A. baumannii (A. baumannii) [fold]	outer membrane permeabilization (NPN) (S. epidermidis)	outer membrane permeabilization (NPN fluorescence) (A. baumannii ATCC19606)	outer membrane permeabilization (NPN) (P. aeruginosa PAO1)	outer membrane permeabilization (NPN) (B. fragilis ATCC25285)
polymyxin B	≤ 256				
natriuretic peptide: peptide hormone responsible for inducing the excretion of sodium by the kidneys (P01160) (SLRRSSCFGGRMDRIGAQSGLGCNSFRY; ends and bridges not checked; cysteine pairing not given here; UniProt P01160 124-151, looked up)		permeabilized	increased fluorescence	permeabilized	permeabilized

From patent publication US20240194290A1, “HIDDEN ANTIBIOTICS IN THE HUMAN PROTEOME” (THE TRUSTEES OF THE UNIVERSITY OF PENNSYLVANIA, priority 2021, published 2024)
